Results from patent US20250270180A1, “MEK INHIBITORS AND THERAPEUTIC USES THEREOF” (Immuneering Corporation, priority 2020, published 2025).
In brackets after ≈: the same amount, converted by molar mass. Like-named read-outs stand apart in the source and are kept apart here.

Legend:
[1] = biological target: CYP450 2C19 (Homo sapiens, UniProt P33261); assay: CYP450 panel, 2C19; settings: 10 μM; substrate mephenytoin
[2] = biological target: CYP450 3A4 (Homo sapiens, UniProt P08684); assay: CYP450 panel, 3A4; settings: 10 μM; for 3A4*: substrate midazolam; for 3A4^: substrate testosterone
Sequence of CYP450 3A4 (P08684 whole entry): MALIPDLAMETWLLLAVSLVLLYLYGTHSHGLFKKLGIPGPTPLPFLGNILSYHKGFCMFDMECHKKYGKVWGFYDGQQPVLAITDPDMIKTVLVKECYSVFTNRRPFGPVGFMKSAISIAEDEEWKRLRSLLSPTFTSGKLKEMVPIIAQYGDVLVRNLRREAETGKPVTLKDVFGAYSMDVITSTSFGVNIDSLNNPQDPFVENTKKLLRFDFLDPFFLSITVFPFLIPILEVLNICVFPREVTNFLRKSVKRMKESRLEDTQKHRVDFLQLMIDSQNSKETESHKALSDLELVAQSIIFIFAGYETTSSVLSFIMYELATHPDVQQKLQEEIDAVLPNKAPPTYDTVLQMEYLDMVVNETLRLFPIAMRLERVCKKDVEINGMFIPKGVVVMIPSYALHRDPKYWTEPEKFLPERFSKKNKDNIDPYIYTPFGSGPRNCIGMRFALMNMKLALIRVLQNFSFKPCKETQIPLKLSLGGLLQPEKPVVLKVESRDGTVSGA

[3] = Kinetic solubility (PBS pH 7.4; 4 hr); assay type: physicochemical
Protocol: The plates were shaken for 4 h at room temperature in an Eppendorf Thermomixer. After incubation, the plates were centrifuged for 20 minutes at 4680 rpm. From the supernatant, 150 uL was transferred to a new 96 well plate and 50 uL DMSO was added to ensure continued dissolution. Samples were measured on LC-UV at injection volumes of 1 and 8 uL. Peak areas were determined and compared to peak areas obtained using calibration curves of the test compounds in DMSO.

[4] = Plasma stability, CD-1 mouse; assay type: in vitro ADME; settings: 2 μM
[5] = Absorption & efflux: Caco-2 permeability; settings: human
[6] = eLogD (lipophilicity; pH 7.4); assay type: physicochemical
Protocol: Test compounds were dissolved in DMSO at a concentration of 10 mM and further diluted with methanol: water 1:1. Samples were analyzed using gradient HPLC with three different isocratic mobile phases of 0.25% octanol in methanol (60, 65 and 70%) and 20 mM MOPS buffer (pH 7.4) with decylamine. If needed, (for low ElogDoct compounds) the isocratic mobile phases were adjusted to e.g. 40, 45 and 50% methanol. Peaks were detected using a diode array at absorbance 220-320 nm.
Capacity factors data (k′ _=(tr−_t0)/t0) obtained at various amounts of methanol were extrapolated to 0% methanol and k′w values are determined using a linear procedure. ElogDoct (7.4) is calculated using a series of reference standards with known Log D values. Each experiment was performed in triplicate.

[7] = Microsome stability, CD-1 mouse; settings: microsomes, 2 μM
[8] = biological target: CYP450 2D6 (Homo sapiens, UniProt P10635); assay: CYP450 panel, 2D6; settings: 10 μM; substrate dextromethophan
Sequence of CYP450 2D6 (P10635 whole entry): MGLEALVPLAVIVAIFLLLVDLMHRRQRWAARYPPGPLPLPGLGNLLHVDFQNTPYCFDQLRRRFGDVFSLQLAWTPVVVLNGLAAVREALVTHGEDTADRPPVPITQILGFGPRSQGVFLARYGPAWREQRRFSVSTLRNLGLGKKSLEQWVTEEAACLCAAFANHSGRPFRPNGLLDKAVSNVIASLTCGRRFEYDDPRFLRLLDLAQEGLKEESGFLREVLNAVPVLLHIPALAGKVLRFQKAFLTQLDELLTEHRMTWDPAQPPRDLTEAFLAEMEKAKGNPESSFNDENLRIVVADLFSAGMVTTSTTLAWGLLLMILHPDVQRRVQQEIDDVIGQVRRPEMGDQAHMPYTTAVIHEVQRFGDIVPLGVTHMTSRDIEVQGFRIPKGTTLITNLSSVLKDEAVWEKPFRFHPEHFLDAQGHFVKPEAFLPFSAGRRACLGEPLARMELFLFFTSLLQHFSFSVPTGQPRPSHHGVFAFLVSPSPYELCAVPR

[9] = PAMPA (pH 7.4)
Protocol: Each stock solution was diluted to 50 uM in pH 7.4 Prisma HT buffer (pION) and 200 ul was added to each well of the donor plate in triplicate. The polyvinylidene fluoride (PVDF, 0.45 μm) filter membrane on the acceptor plate was coated with 5 ul gastrointestinal tract lipid formulation (GIT-0, pION) and to each well of the acceptor plate, 200 μl of acceptor sink buffer (pION) was added. The acceptor filter plate was then carefully placed on top of the donor plate to form a sandwich. The sandwich was incubated at 25° C. for 4 h without stirring. UV-vis spectra of the solutions in the blank, reference, acceptor and donor plates were measured using a microplate reader (Tecan Infinite 200PRO M Nano Plus). Permeability values were calculated using the PAMPA explorer software v. 3.8.0.2 (pION).

[10] = Plasma stability, human; assay type: in vitro ADME; settings: 2 μM
[11] = biological target: T1, CYP450 1A2 (Homo sapiens, UniProt P05177); assay: CYP450 panel, 1A2; assay type: in vitro ADME; settings: 10 μM; substrate phenacetin
T1 sequence (P05177 1-516): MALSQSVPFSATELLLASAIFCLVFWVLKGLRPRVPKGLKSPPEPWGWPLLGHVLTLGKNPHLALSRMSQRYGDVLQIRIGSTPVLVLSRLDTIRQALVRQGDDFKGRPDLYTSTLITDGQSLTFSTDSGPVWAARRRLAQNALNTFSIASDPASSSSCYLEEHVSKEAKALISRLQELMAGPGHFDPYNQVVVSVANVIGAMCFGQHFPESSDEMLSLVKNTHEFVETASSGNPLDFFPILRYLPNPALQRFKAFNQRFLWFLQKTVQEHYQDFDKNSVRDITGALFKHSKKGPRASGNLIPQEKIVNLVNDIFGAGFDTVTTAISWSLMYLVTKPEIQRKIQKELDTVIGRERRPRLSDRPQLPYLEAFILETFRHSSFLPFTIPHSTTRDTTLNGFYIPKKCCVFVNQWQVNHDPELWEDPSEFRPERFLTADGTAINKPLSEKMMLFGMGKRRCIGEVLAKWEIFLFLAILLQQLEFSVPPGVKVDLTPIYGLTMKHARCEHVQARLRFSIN

[12] = Microsome stability, human; assay type: in vitro ADME; settings: microsomes, 2 μM
[13] = Plasma stability, beagle dog; assay type: in vitro ADME; settings: 2 μM
[14] = Microsome stability, beagle dog; assay type: in vitro ADME; settings: microsomes, 2 μM
[15] = 10 mM PBS buffer, aqueous buffer, kinetic from dmso stock

Sequence of CYP450 2C19 (P33261 whole entry): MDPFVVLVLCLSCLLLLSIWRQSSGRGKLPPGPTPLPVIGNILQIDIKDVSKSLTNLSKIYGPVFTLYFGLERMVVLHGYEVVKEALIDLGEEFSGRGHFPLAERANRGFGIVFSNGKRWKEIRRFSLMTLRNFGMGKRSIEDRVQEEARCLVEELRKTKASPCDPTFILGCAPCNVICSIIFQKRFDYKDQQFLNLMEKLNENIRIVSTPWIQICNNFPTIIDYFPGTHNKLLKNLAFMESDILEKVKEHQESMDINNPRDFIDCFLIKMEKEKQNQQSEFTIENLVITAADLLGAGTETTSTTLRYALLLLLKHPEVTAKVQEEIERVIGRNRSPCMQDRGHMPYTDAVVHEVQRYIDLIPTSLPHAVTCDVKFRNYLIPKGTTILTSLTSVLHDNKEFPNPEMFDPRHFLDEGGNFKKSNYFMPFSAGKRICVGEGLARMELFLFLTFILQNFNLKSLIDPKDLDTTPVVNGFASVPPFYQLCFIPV

SMILES | 2C19* [1] | 3A4* [2] | 3A4^ [2] | CD-1 Mouse (% Reamining @2 hour) [4] | Papp A→B at 2 h, 10 μM [5] | eLogD (lipophilicity; pH = 7.4) [6] | CD-1 Mouse (% Reamining @1 hour) [7] | 2D6* [8] | PAMPA (pH = 7.4; Papp 10^−6 cm/s) [9] | Human (% Reamining @2 hour) [10] | 1A2* [11] | Human (% Reamining @1 hour) [12] | Beagle Dog (% Reamining @2 hour) [13] | Beagle Dog (% Reamining @1 hour) [14] | solubility kinetic at 4 h [3, 15] | further results
Cn1cnc2c(F)c(Nc3ccc(Br)cc3Cl)c(C(=O)NOCCO)cc21 [Reference 1, Selumetinib, reference compound] | 13.9 | 25.9 | 21.4 | 104.8% | > 1 ×10⁻⁶ cm/s | 3.6 | 13.9% | 5.0 | 29 10^−6 cm/s | 98.1% | 8.3 | 75.8% | 100.4% | 97.5% |  | solubility kinetic at 4 h [3]: 36 µM (≈ 16.5 µg/mL)
CNS(=O)(=O)Nc1cccc(Cc2c(CN(C)C)c3ccc(OC(=O)N(C)C)cc3oc2=O)c1F [Compound 9] | 8.2 | 16.3 | 26.8 | 90.6% |  | 3.0 | 54.3% | −3.7 |  | 95.1% | 4.8 | 51.7% | 96.8% | 76.5% | > 80 µM | Papp B→A at 2 h, 10 μM [5]: 21 ×10⁻⁶ cm/s; efflux ratio at 2 h, 10 μM [5]: 1.62; Papp A→B at 2 h, 10 μM ([5]; Caco-2, A-B Permeability Ranking, 10 μM, 2 hrs): > 1 ×10⁻⁶ cm/s; Papp A→B at 2 h, 10 μM ([5]; Caco-2, Mean Papp A-B (10^−6 cm/s), 10 μM, 2 hrs): 13 ×10⁻⁶ cm/s; Papp at 4 h, 50 uM ([9]; PAMPA): 37 ×10⁻⁶ cm/s
CNS(=O)(=O)Nc1nccc(Cc2c(C)c3ccc(Oc4ncccn4)cc3oc2=O)c1F [Reference 2, reference compound] | −0.9 | 16.6 | 15.7 | 92.9% | > 1 ×10⁻⁶ cm/s | 3.6 | 96.0% | 3.4 | 29 10^−6 cm/s | 91.1% | 0.8 | 107.1% | 99.8% | 111.6% | 36 µM (≈ 17 µg/mL) | 
